Reference: the NIST ThermoML archive (doi:10.1021/je050089u)
Numbers after ± are expanded uncertainties.

Assay: excess molar enthalpy (molar enthalpy of mixing); xn = mol fraction of the nth substance listed
Details: Fluid (supercritical or subcritical phases)

COC(=O)OC [dimethyl carbonate] + O=C=O
excess molar enthalpy [kcal/mol]
Details	298.15 K	303.15 K
5000 kPa, x2 = 0.0793	-0.207 ± 0.00382	-0.237 ± 0.00406
5000 kPa, x2 = 0.1538	-0.427 ± 0.00693	-0.446 ± 0.00717
5000 kPa, x2 = 0.224	-0.636 ± 0.0103	-0.641 ± 0.0103
5000 kPa, x2 = 0.2902	-0.832 ± 0.0131	-0.833 ± 0.0134
5000 kPa, x2 = 0.3528	-1.02 ± 0.0163	-1.01 ± 0.016
5000 kPa, x2 = 0.4121	-1.15 ± 0.0182	-1.19 ± 0.0189
5000 kPa, x2 = 0.4683	-1.33 ± 0.021	-1.33 ± 0.021
5000 kPa, x2 = 0.5216	-1.48 ± 0.0232	-1.48 ± 0.0234
5000 kPa, x2 = 0.5723	-1.59 ± 0.0239	-1.6 ± 0.0263
5000 kPa, x2 = 0.6206	-1.71 ± 0.0263	-1.71 ± 0.0263
5000 kPa, x2 = 0.6666	-1.82 ± 0.0287	-1.83 ± 0.0287
5000 kPa, x2 = 0.7104	-1.92 ± 0.0311	-1.93 ± 0.0311
5000 kPa, x2 = 0.7523	-1.99 ± 0.0311	-2.01 ± 0.0311
5000 kPa, x2 = 0.7686	–	-2.04 ± 0.0311
5000 kPa, x2 = 0.7766	–	-2.04 ± 0.0311
5000 kPa, x2 = 0.7924	-2.07 ± 0.0335	–
5000 kPa, x2 = 0.8307	-2.13 ± 0.0335	-1.48 ± 0.0234
5000 kPa, x2 = 0.8382	-2.09 ± 0.0335	–
5000 kPa, x2 = 0.8674	-1.69 ± 0.0263	-1.15 ± 0.0182
5000 kPa, x2 = 0.9026	-1.26 ± 0.0201	-0.913 ± 0.0146
5000 kPa, x2 = 0.9364	-0.785 ± 0.0124	-0.571 ± 0.00932
5000 kPa, x2 = 0.9688	-0.384 ± 0.00621	-0.254 ± 0.0043
5000 kPa, x2 = 0.9969	0.0153 ± 0.00191	–
5500 kPa, x2 = 0.0798	–	-0.214 ± 0.00382
5500 kPa, x2 = 0.1548	-0.4 ± 0.00669	-0.438 ± 0.00717
5500 kPa, x2 = 0.2253	-0.618 ± 0.01	-0.619 ± 0.01
5500 kPa, x2 = 0.2918	-0.794 ± 0.0127	-0.798 ± 0.0127
5500 kPa, x2 = 0.3546	-0.967 ± 0.0153	-0.989 ± 0.0158
5500 kPa, x2 = 0.4139	-1.12 ± 0.0177	-1.15 ± 0.0182
5500 kPa, x2 = 0.4702	-1.27 ± 0.0201	-1.3 ± 0.0206
5500 kPa, x2 = 0.5235	-1.4 ± 0.0222	-1.41 ± 0.0222
5500 kPa, x2 = 0.5742	-1.52 ± 0.0239	-1.54 ± 0.0239
5500 kPa, x2 = 0.6223	-1.61 ± 0.0263	-1.64 ± 0.0263
5500 kPa, x2 = 0.6682	-1.73 ± 0.0263	-1.75 ± 0.0287
5500 kPa, x2 = 0.712	-1.82 ± 0.0287	-1.85 ± 0.0287
5500 kPa, x2 = 0.7537	-1.91 ± 0.0287	-1.92 ± 0.0311
5500 kPa, x2 = 0.7936	-1.98 ± 0.0311	-1.98 ± 0.0311
5500 kPa, x2 = 0.8318	-2.02 ± 0.0311	-2.02 ± 0.0311
5500 kPa, x2 = 0.8392	–	-2.01 ± 0.0311
5500 kPa, x2 = 0.8466	–	-1.89 ± 0.0287
5500 kPa, x2 = 0.8683	-2.04 ± 0.0311	-1.62 ± 0.0263
5500 kPa, x2 = 0.9033	-2.03 ± 0.0311	-1.18 ± 0.0186
5500 kPa, x2 = 0.9368	-1.51 ± 0.0237	-0.733 ± 0.0117
5500 kPa, x2 = 0.9691	-0.767 ± 0.0122	-0.331 ± 0.0055
6000 kPa, x2 = 0.0803	–	-0.202 ± 0.00382
6000 kPa, x2 = 0.1557	-0.389 ± 0.00645	-0.41 ± 0.00669
6000 kPa, x2 = 0.2265	-0.558 ± 0.00908	-0.6 ± 0.00956
6000 kPa, x2 = 0.2932	-0.797 ± 0.0127	-0.78 ± 0.0124
6000 kPa, x2 = 0.3561	-0.905 ± 0.0143	-0.923 ± 0.0146
6000 kPa, x2 = 0.4156	-1.04 ± 0.0165	-1.1 ± 0.0174
6000 kPa, x2 = 0.4718	-1.19 ± 0.0189	-1.23 ± 0.0194
6000 kPa, x2 = 0.5252	-1.29 ± 0.0203	-1.36 ± 0.0215
6000 kPa, x2 = 0.5758	-1.4 ± 0.022	-1.47 ± 0.0232
6000 kPa, x2 = 0.6239	-1.52 ± 0.0239	-1.58 ± 0.0239
6000 kPa, x2 = 0.6697	-1.62 ± 0.0263	-1.67 ± 0.0263
6000 kPa, x2 = 0.7134	-1.69 ± 0.0263	-1.76 ± 0.0287
6000 kPa, x2 = 0.755	-1.73 ± 0.0263	-1.82 ± 0.0287
6000 kPa, x2 = 0.7947	-1.8 ± 0.0287	–
6000 kPa, x2 = 0.8327	-1.85 ± 0.0287	–
6000 kPa, x2 = 0.8691	-1.87 ± 0.0287	–
6000 kPa, x2 = 0.9039	-1.89 ± 0.0287	–
6000 kPa, x2 = 0.9502	-1.86 ± 0.0287	–
6000 kPa, x2 = 0.9693	-1.78 ± 0.0287	–
6000 kPa, x2 = 0.9817	-0.864 ± 0.0139	–
